| Compound | melting point [°C] |
| --- | --- |
| COc1ccccc1CC(=O)C1=C(O)C(=O)N(c2nc3c(Cl)cccc3s2)C1c1ccc(F)cc1 (centres unmarked) [Compound 486] | 243 to 245 |
| Cc1ccc(C(=O)C2=C(O)C(=O)N(c3ncnc4c3ncn4C3OC(CO)C(O)C3O)C2c2ccccc2F)o1 (centres unmarked) [Compound 217] | 106 to 109 |
| CCc1ccc2nc(N3C(=O)C(O)=C(C(=O)c4ccc(C)o4)C3c3ccccc3F)sc2c1 (centres unmarked) [Compound 138] | 165 to 169 |
| COCC(=O)C1=C(O)C(=O)N(c2nc3ccc(Cl)cc3s2)C1c1ccc(F)cc1 (centres unmarked) [Compound 442] | 263 to 264 |
| CCOC(=O)CCC(=O)C1=C(O)C(=O)N(c2nc3c(Cl)cccc3s2)C1c1ccccc1F (centres unmarked) [Compound 499] | 180 to 182 |
| Cc1ccc(C(=O)C2=C(O)C(=O)N(c3nc4c(O)ncnc4[nH]3)C2c2ccccc2F)o1 (centres unmarked) [Compound 162] | > 350 |
| Cc1ccc(C(=O)C2=C(O)C(=O)N(c3nc4c(Cl)cccc4s3)C2c2ccc3ccccc3c2)o1 (centres unmarked) [Compound 601] | 261 to 262 |
| COc1ccc2nc(N3C(=O)C(O)=C(C(=O)c4ccc(C)o4)C3c3ccc(OC)c(O)c3)sc2c1 (centres unmarked) [Compound 156] | 241 to 242 |
| Cc1ccc(C(=O)C2=C(O)C(=O)N(c3nc4ccc(Cl)cc4s3)C2c2ccc(OCCO)cc2)o1 (centres unmarked) [Compound 477] | 209 to 210 |
| O=C(C1=C(O)C(=O)N(c2nc3c(Cl)cccc3s2)C1c1ccccc1F)C1CCC1 (centres unmarked) [Compound 573] | 220 to 221 |
| Cc1ccc(C(=O)C2=C(O)C(=O)N(Cc3ccco3)C2c2ccc(F)cc2)o1 (centres unmarked) [Compound 503] | 213 to 214 |

Now from value to compound:

| melting point [°C] | Compound |
| --- | --- |
| 244 to 245 | Cc1ccc(C(=O)C2=C(O)C(=O)N(c3nc4ccc(Cl)cc4s3)C2c2ccc(-c3ccccc3)cc2)o1 (centres unmarked) [Compound 464] |
| 205 to 206 | O=C(C1=C(O)C(=O)N(c2nc3ccc(Cl)cc3s2)C1c1ccccc1F)C1CC2C=CC1C2 (centres unmarked) [Compound 579] |
| 146 to 148 | Cc1ccc(C(=O)C2=C(O)C(=O)N(CCCN(CCCNC(=O)OC(C)(C)C)C(=O)OC(C)(C)C)C2c2ccc(F)cc2)o1 (centres unmarked) [Compound 490] |
| 235 to 236 | CCOc1ccc2nc(N3C(=O)C(O)=C(C(=O)c4ccc(C)o4)C3c3cccs3)sc2c1 (centres unmarked) [Compound 257] |
| 309 to 310 | O=C(C1=C(O)C(=O)N(c2nc3ccc(Cl)cc3s2)C1c1ccccc1F)c1nccs1 (centres unmarked) [Compound 435] |
| 238 to 239 | CC(=O)C1=C(O)C(=O)N(c2nc3ccc(F)cc3s2)C1c1ccc(F)cc1 (centres unmarked) [Compound 423] |
| 223 to 226 | CCN(CC)c1ccc(C2C(C(=O)c3ccc(C)o3)=C(O)C(=O)N2c2nc3c(Cl)cccc3s2)cc1 (centres unmarked) [Compound 616] |
| 157 to 158 | Cc1ccc(C(=O)C2=C(O)C(=O)N(CCc3c[nH]c4ccccc34)C2c2ccc(F)cc2)o1 (centres unmarked) [Compound 594] |
| 234 to 235 | O=C(COc1ccccc1Cl)C1=C(O)C(=O)N(c2nc3ccc(F)cc3s2)C1c1ccc(F)cc1 (centres unmarked) [Compound 459] |
| 178 to 179 | CCOC(=O)CCC(=O)C1=C(O)C(=O)N(c2nc3c(Cl)cccc3s2)C1c1ccc(F)cc1 (centres unmarked) [Compound 500] |
| 253 to 254 | Cc1ccc(C(=O)C2=C(O)C(=O)N(c3nc4ccc(Cl)cc4s3)C2c2cccc(F)c2F)o1 (centres unmarked) [Compound 623] |
| 166 to 167 | CCOc1ccc2nc(N3C(=O)C(O)=C(C(=O)c4ccc(C)o4)C3C3CCCCC3)sc2c1 (centres unmarked) [Compound 185] |
| 187 to 188 | CCOc1ccc2nc(N3C(=O)C(O)=C(C(=O)c4ccc(C)o4)C3c3ccc(-c4cccc([N+](=O)[O-])c4)o3)sc2c1 (centres unmarked) [Compound 256] |
| 214 to 215 | CCOc1ccc2nc(N3C(=O)C(O)=C(C(=O)c4ccc(C)o4)C3c3cccc(OCc4ccccc4)c3)sc2c1 (centres unmarked) [Compound 186] |
| 204 to 206 | Cc1ccc(C(=O)C2=C(O)C(=O)N(C3CCC(O)CC3)C2c2ccccc2F)o1 (centres unmarked) [Compound 433] |
